In US7144858B2, “Antibacterial compounds and methods for treating Gram positive bacterial infections” (The Trustees of the University of Pennsylvania, priority 2002, dated 2006):

Experiments:
[1] = Binding to Park's nucleotide, Kd by 1H NMR titration; design: species or system Bacillus subtilis; settings: for Kd: 20% DMSO, NMR titration
Protocol: Fibril formation is observed in vitro and serves as a convenient predictor of PG complexation in vitro. […] Therefore, DMSO allows for the determination of binding affinity (Kd) values and characterization of the binding interface by Nuclear Magnetic Resonance spectroscopy (NMR).
(§1) Mass spectra were recorded on commercially available spectrometers and HPLC was performed on a commercially available columns. Both the NMR spectroscopy and transmission electron micrographs were performed in a manner known to one of ordinary skill in the art. Fmoc-amino acids and deuterated solvents were purchased from a commercial supplier. Measurement of dissociation constants was performed by NMR.
(§2) UDP-MurNAc-L-Ala-γ-D-Glu-L-Dap-D-Ala-D-Ala pentapeptide (Park's nucleotide) and UDP-MurNAc-L-Ala-γ-D-Glu-L-Dap tripeptide were isolated from Bacillus subtilis by methods known to those of ordinary skill in the art.
(§3) The resultant antibacterial compound was then titrated against a solution of the cytoplasmic PG biosynthetic precursor of lipid II, Park's nucleotide. Isothermal titration calorimetry experiments were used to measure the interaction between the antibacterial compound and Park's nucleotide. The experiments were performed at 25° C. using a titration microcalorimeter equipped with a 250 μL injection syringe and a 400 rpm stirring rate. Both the, antibacterial compound and Park's nucleotide were dissolved in water and vacuum degassed before use. Park's nucleotide (20×10 μL injection of a 5.4 mM solution) was injected into an ITC cell containing ca. 1.3 mL of the antibacterial compound (1 mM). Control experiments were performed under identical conditions by injection of the compound into water alone, Park's nucleotide into water, and the reverse experiment of titrating water into solution of the antibacterial compound or Park's nucleotide. […] The complex pattern of heat released during the titration is indicative of ligand-induced aggregation. Insoluble fibrils were produced from soluble fibril preparations by increasing the ionic strength to greater than or equal to 100 mM.

[2] = Binding to UDP-MurNAc tripeptide lipid II precursor, NMR titration; design: species or system Bacillus subtilis; settings: for Complexation/binding with UDP-MurNAc-L-Ala-γ-D-Glu-L-Dap tripeptide: NMR analysis / titration
Protocol: as §1, §2, §3
The resultant antibacterial compound still maintains the side-chain amine cationic charge. […] These values indicate that there was a strong affinity of the antibacterial compound to the two lipid II precursors.

[3] = Isothermal titration calorimetry with Park's nucleotide; type: binding, Bacillus subtilis; settings: 25° C., water, Park's nucleotide 5.4 mM injected into 1 mM compound
Protocol: as §3

[4] = tested on: Gram positive bacteria; test: Antibiotic activity; type: cell-based

cyclic (lactone) antibacterial compound containing octapeptide -Hpg-Orn-Thr-Hpg-Hpg-Thr-Phe-Orn-, diguanidylated at the ornithine residues [Example 1]
Kd [1]: 170 µM
Complexation with Park's nucleotide by NMR ([1]; NMR analysis): clear evidence of complexation and formation of a large, soluble aggregate
Complexation/binding with UDP-MurNAc-L-Ala-γ-D-Glu-L-Dap tripeptide [2]: clear evidence of complexation and formation of a large, soluble aggregate
Ligand-induced aggregation during ITC titration [3]: ligand-induced aggregation occurred

cyclic (lactone) compound containing octapeptide -Hpg-Orn-Thr-Hpg-Hpg-Thr-Phe-Orn-, diacetylated at the ornithine residues; lacks the side-chain cationic charge [Comparative Example A, reference compound]
Kd [1]: 1340 ± 320 µM
Decrease in binding affinity with Park's nucleotide ([1]; titration experiments): ~10 fold
Antibiotic activity [4]: markedly reduced
Complexation/binding with UDP-MurNAc-L-Ala-γ-D-Glu-L-Dap tripeptide [2]: failed to show detectable binding

cyclic (lactone) compound containing octapeptide -Hpg-Orn-Thr-Hpg-Hpg-Thr-Phe-Orn-, ornithine residues modified into secondary amines with isovaleraldehyde [Example 2]
Kd [1]: 130 ± 20 µM
Kd ([2]; titration as in example 1, read-out: Kd value with UDP-MurNAc-L-Ala-γ-D-Glu-L-Dap tripeptide): 1.28 ± 0.14 mM
